pEC50: −log10 of the molar value.
What follows are compounds tested against T1, HEK cells stably transfected with tetracycline inducible hNR1 and hNR2A (Homo sapiens, UniProt Q05586+Q12879) (assay: Assay 1: Cell-Based Assay, cytosolic calcium response to positive allosteric modulators (with 30 μM glycine and 300 nM L-glutamate, EC30)). Details: Table 3; cytosolic calcium response, with 30 μM glycine and 300 nM L-glutamate (EC30); — = no plateau was reached.
T1 construct: expressed in transfected cells; host or cells: HEK cells, stably transfected, tetracycline/doxycycline inducible
Outline: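 Cells induced 24 h with 7.5 μg mL^−1 doxycycline plus 500 μM (+)-ketamine, loaded 60 min at 37 °C with calcium dye in Mg-free HBSS (1.8 mM Ca, probenecid, 10 μM (+)-ketamine, pH 7.15). Peak RFU over 5 min after compound addition, scaled to 100 μM L-glutamate (100%) and 0 μM (0%); four-parameter Hill fit for EC50, max % if no plateau.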

T1 sequence (Q12879 23-1464, other chains not shown): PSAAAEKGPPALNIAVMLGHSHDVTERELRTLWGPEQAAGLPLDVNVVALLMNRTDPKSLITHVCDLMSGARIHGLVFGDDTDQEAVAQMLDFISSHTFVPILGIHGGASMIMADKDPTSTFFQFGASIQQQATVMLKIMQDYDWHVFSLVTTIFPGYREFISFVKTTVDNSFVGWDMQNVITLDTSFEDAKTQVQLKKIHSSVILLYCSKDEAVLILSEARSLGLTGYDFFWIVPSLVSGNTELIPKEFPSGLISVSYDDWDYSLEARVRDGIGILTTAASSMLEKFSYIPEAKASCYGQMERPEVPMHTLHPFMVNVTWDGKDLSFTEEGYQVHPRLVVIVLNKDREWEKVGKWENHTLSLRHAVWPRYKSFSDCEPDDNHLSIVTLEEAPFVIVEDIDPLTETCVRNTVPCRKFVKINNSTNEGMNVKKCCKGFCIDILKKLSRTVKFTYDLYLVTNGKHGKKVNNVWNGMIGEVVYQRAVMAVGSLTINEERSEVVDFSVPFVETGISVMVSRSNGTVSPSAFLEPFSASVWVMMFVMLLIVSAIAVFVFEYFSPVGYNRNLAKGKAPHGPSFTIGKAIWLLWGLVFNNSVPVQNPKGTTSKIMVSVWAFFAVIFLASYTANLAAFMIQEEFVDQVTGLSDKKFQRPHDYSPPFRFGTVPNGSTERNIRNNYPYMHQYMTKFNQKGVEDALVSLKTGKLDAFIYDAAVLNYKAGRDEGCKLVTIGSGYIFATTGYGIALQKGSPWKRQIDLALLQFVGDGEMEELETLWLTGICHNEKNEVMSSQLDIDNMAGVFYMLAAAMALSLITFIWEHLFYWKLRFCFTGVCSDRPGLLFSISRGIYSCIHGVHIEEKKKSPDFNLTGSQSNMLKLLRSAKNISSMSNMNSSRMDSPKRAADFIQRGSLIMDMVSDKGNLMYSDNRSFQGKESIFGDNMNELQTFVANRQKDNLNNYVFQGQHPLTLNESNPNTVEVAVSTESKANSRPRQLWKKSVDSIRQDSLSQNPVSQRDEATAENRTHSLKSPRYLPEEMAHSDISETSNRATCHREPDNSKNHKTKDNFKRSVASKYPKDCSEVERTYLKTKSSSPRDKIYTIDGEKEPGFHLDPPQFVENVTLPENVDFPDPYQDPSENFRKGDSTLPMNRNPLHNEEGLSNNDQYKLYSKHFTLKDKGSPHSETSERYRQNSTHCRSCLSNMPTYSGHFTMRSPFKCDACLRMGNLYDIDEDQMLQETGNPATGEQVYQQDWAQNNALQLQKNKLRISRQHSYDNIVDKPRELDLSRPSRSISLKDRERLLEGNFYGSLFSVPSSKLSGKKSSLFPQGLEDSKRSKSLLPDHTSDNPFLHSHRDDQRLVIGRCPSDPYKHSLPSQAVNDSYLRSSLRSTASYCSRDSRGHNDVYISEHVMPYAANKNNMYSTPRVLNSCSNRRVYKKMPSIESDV

Row | SMILES | pEC50
1 | Cc1sc2nc(Cc3cccc(C(F)(F)F)c3F)cc(=O)n2c1-c1ncc[nH]1 [compound 47, 7-[[2-fluoro-3-(trifluoromethyl)phenyl]methyl]-3-(1H-imidazol-2-yl)-2-methyl-thiazolo[3,2-a]pyrimidin-5-one] | 5.29
2 | CCNC(=O)c1c(C)sc2nc(Oc3cccc(C(F)(F)F)c3F)cc(=O)n12 [compound 48, N-ethyl-7-[2-fluoro-3-(trifluoromethyl)phenoxy]-2-methyl-5-oxo-thiazolo[3,2-a]pyrimidine-3-carboxamide] | 5.12
3 | CCNC(=O)c1c(C)sc2nc(Cc3cc(C)cc(C#N)c3F)cc(=O)n12 [compound 49, 7-[(3-cyano-2-fluoro-5-methyl-phenyl)methyl]-N-ethyl-2-methyl-5-oxo-thiazolo[3,2-a]pyrimidine-3-carboxamide] | 4.76
4 | CCNC(=O)c1c(C(F)(F)F)sc2nc(Cc3cccc(Cl)c3F)cc(=O)n12 [compound 50, 7-[(3-chloro-2-fluoro-phenyl)methyl]-N-ethyl-5-oxo-2-(trifluoromethyl)thiazolo[3,2-a]pyrimidine-3-carboxamide] | 5.19
5 | Cc1sc2nc(Cc3cccc(C(F)(F)F)c3F)cc(=O)n2c1C(=O)NCC(F)(F)F [compound 51, 7-[[2-fluoro-3-(trifluoromethyl)phenyl]methyl]-2-methyl-5-oxo-N-(2,2,2-trifluoroethyl)thiazolo[3,2-a]pyrimidine-3-carboxamide] | 5.50
6 | Cc1sc2nc(Cn3nc(C(F)(F)F)cc3C)cc(=O)n2c1C(=O)NCC(F)(F)F [compound 52, 2-methyl-7-[[5-methyl-3-(trifluoromethyl)pyrazol-1-yl]methyl]-5-oxo-N-(2,2,2-trifluoroethyl)thiazolo[3,2-a]pyrimidine-3-carboxamide] | 5.06
7 | CNC(=O)c1c(C(F)(F)F)sc2nc(Cn3nc(C(F)(F)F)cc3C3CC3)cc(=O)n12 [compound 53, 7-[[5-cyclopropyl-3-(trifluoromethyl)pyrazol-1-yl]methyl]-N-methyl-5-oxo-2-(trifluoromethyl)thiazolo[3,2-a]pyrimidine-3-carboxamide] | 6.20

Second part, the compound after the results:

Row | pEC50 | SMILES
8 | 5.66 | CNC(=O)c1c(C(F)(F)F)sc2nc(Cn3nc(C4CC4)cc3C(F)(F)F)cc(=O)n12 [compound 54, 7-[[3-cyclopropyl-5-(trifluoromethyl)pyrazol-1-yl]methyl]-N-methyl-5-oxo-2-(trifluoromethyl)thiazolo[3,2-a]pyrimidine-3-carboxamide]
9 | 5.94 | CNC(=O)c1c(C(F)(F)F)sc2nc(Cn3nc(C(F)(F)F)cc3Cl)cc(=O)n12 [compound 55, 7-[[5-chloro-3-(trifluoromethyl)pyrazol-1-yl]methyl]-N-methyl-5-oxo-2-(trifluoromethyl)thiazolo[3,2-a]pyrimidine-3-carboxamide]
10 | 5.64 | CNC(=O)c1c(C(F)(F)F)sc2nc(Cn3nc(Cl)cc3C(F)(F)F)cc(=O)n12 [compound 56, 7-[[3-chloro-5-(trifluoromethyl)pyrazol-1-yl]methyl]-N-methyl-5-oxo-2-(trifluoromethyl)thiazolo[3,2-a]pyrimidine-3-carboxamide]
11 | 6.20 | Cc1sc2nc(Cn3nc(C(F)(F)F)cc3C3CC3)cc(=O)n2c1C(=O)NCC(F)(F)F [compound 57, 7-[[5-cyclopropyl-3-(trifluoromethyl)pyrazol-1-yl]methyl]-2-methyl-5-oxo-N-(2,2,2-trifluoroethyl)thiazolo[3,2-a]pyrimidine-3-carboxamide]
12 | 5.19 | Cc1sc2nc(Cn3nc(C4CC4)cc3C(F)(F)F)cc(=O)n2c1C(=O)NCC(F)(F)F [compound 58, 7-[[3-cyclopropyl-5-(trifluoromethyl)pyrazol-1-yl]methyl]-2-methyl-5-oxo-N-(2,2,2-trifluoroethyl)thiazolo[3,2-a]pyrimidine-3-carboxamide]
13 | 5.09 | CNC(=O)c1c(C)sc2nc(Oc3cccc(C(F)(F)F)c3F)cc(=O)n12 [compound 59, 7-[2-fluoro-3-(trifluoromethyl)phenoxy]-N,2-dimethyl-5-oxo-thiazolo[3,2-a]pyrimidine-3-carboxamide]

From patent publication US9988400B2 (Genentech, Inc., priority 2013, dated 2018)
